Measured values taken from US6169181A, “Compounds useful to treat retroviral infections” (Pharmacia & Upjohn Company, priority 1998, dated 2001).
Where “and” joins values, the source holds several entries; their conditions need not be identical. Equal entries are not always repeated. Where two headings read alike, the source gives them in different places.

How the values were obtained:
[1] = target: T1, single chain tethered (tandem) HIV protease (HIV-1 M:B_HXB2R, UniProt P04585); experiment: Tandem HIV protease assay; format: biochemical; settings: read-out: FITC KI; Table II; enzyme HIV1TANDEM
T1 construct: purified enzyme, FITC/biotin substrate assay
Experimental: In the enzyme inhibition assay described above, the sensitivity of Ki value determination is in part limited by the ability to continue to lower the enzyme concentration for compounds with high binding affinity. To prevent de-dimerization at low enzyme concentration, a tandemly linked enzyme is prepared in which the two monomers are covalently linked by an appropriate stretch of amino acid residues. Using the latter enzyme, the sensitivity of the inhibition assay is improved since much lower enzyme concentration can be utilized, as compared to the condition using the wild-type enzyme.
The starting inhibitor concentrations are determined based on preliminary enzyme inhibition screening results which estimate the expected potency of the inhibitor. Inhibitor concentrations are then prepared using the Biomek 1000 (Beckman) and the Quadra 96 (Tomtec). Substrate (biotinylated at the amino terminal arginine and fluorescently labeled with fluorescein at the carboxyl terminal lysine), inhibitor and the tandem enzyme are allowed to react in solution at pH 5.5 (buffers identical to those used with the native dimeric enzyme) in the dark for 96 hours. Streptavidin coated polystyrene beads are added to stop the reaction. The labeled cleavage product is separated from unreacted substrate via filtration. Residual fluorescence is quantitated with the Idexx SM2000 (Idexx) and the resulting data are analyzed using the NLLSF program.

HIV-1 protease = HIV-1 protease (Human immunodeficiency virus type 1 group M subtype B, UniProt P04585); experiment: biochemical
How it was run: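 Percent inhibition came from fluorescence of FITC-tagged cleavage product, separated by filtration from uncleaved substrate captured on streptavidin-coated beads. The enzyme (10 μl of 0.1 μM) and compound acted on a biotin/FITC dual-labelled peptide for one hour at room temperature in the dark. The reaction ran in 0.1 M sodium acetate, pH 5.5, with 1.0 M NaCl and 0.05% NP-40.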

[2] = Table II, enzyme HIV-1, DOSE 0.123 (unit not given)
[3] = Table II, enzyme HIV-1, DOSE 0.370 (unit not given)
[4] = Table II, enzyme HIV-1, DOSE 1.100 (unit not given)
[5] = Table II, enzyme HIV-1, DOSE 3.300 (unit not given)
[6] = Table II, enzyme HIV-1, DOSE 10.000 (unit not given)
[7] = Table II, enzyme HIV-1, DOSE 30.000 (unit not given)

Row | SMILES | Ki [1] [nM] | PROTEASE % INHIB. (HIV-1 protease; [2]) [%] | PROTEASE % INHIB. (HIV-1 protease; [3]) [%] | PROTEASE % INHIB. (HIV-1 protease; [4]) [%] | PROTEASE % INHIB. (HIV-1 protease; [5]) [%] | PROTEASE % INHIB. (HIV-1 protease; [6]) [%] | PROTEASE % INHIB. (HIV-1 protease; [7]) [%] | PROTEASE % INHIB. (HIV-1 protease)
1 | Cn1cnc(S(=O)(=O)Nc2cccc(C(C3=C(O)CC(CCc4ccccc4)(CCC(F)(F)F)OC3=O)C(C)(C)C)c2)c1 (single isomer, unassigned) [Example 276, N-[3-(R or S)-[1-[5,6-dihydro-4-hydroxy-2-oxo-6-(R or S)-(2-phenethyl)-6-(3,3,3-trifluoropropyl)-2H-pyran-3-yl]-2,2-dimethylpropyl]phenyl]-1-methyl-1H-imidazole-4-sulfonamide] | 33 | 16.49 | 38.95 | 66.1 | 90.01 | 90.97 | 87.6 | –
2 | CCCC1(CCc2ccccc2)CC(O)=C(C(c2cccc(NS(=O)(=O)c3ccccn3)c2)C(C)(C)C)C(=O)O1 (single isomer, unassigned) [Example 278, N-[3-(R or S)-[1-[5,6-dihydro-4-hydroxy-2-oxo-6-(2-phenethyl)-[6-(R or S)-propyl]-2H-pyran-3-yl]-2,2-dimethylpropyl]phenyl]-2-pyridinesulfonamide] | 0.04 | 76.76 | 86.99 | 95.6 | 96.91 | 93.32 | 86.18 | –
3 | CCCC1(CCC)CC(O)=C(C(c2cccc(NS(=O)(=O)c3ccc(C(F)(F)F)cn3)c2)C(C)(C)C)C(=O)O1 (single isomer, unassigned) [Example 285, 5-Trifluoromethyl-N-[3-(R or S)-[1-[4-hydroxy-2-oxo-6,6-di-n-propyl-5,6-dihydro-2H-pyran-3-yl]-2,2-dimethylpropyl]-phenyl]-2-pyridinesulfonamide] | 0.015 | 81.8 | 95.8 | 99.11 | 109.33 | 104.61 | 86.84 | –
4 | CCCC1(CCC)CC(O)=C(C(c2cccc(NS(=O)(=O)c3ccc(C(F)(F)F)cn3)c2)C(C)(C)C)C(=O)O1 (single isomer, unassigned) [Example 286, 5-Trifluoromethyl-N-[3-(R or S)-[1-[4-hydroxy-2-oxo-6,6-di-n-propyl-5,6-dihydro-2H-pyran-3-yl]-2,2-dimethylpropyl]-phenyl]1-2-pyridinesulfonamide] | 13.3 | 34.76 | 68.74 | 89.29 | 93.11 | 108.17 | 95.31 | –
5 | CCC[C@@]1(CCc2ccccc2)CC(O)=C([C@@H](c2cccc(NS(=O)(=O)c3ccc(C#N)cn3)c2)C(C)(C)C)C(=O)O1 (single isomer, unassigned) [Example 300, 5-Cyano-N-[3(R or S)-(1-[5,6-dihydro-4-hydroxy-2-oxo-6(R or S)-(2-phenylethyl)-6-propyl-2H-pyran-3-yl]-2,2-dimethylpropyl)-phenyl]-2-pyridinesulfonamide] | 0.1 | – | – | – | – | – | – | 90.61 and 99.05 and 111.45 and 109.19 and 105.56 and 104.91
6 | CCCC1(CCc2ccccc2)CC(O)=C(C(c2cccc(NS(=O)(=O)c3cn(C)cn3)c2)C(C)(C)C)C(=O)O1 (single isomer, unassigned) [Example 307, N-[3(R or S)-[1-(5,6-Dihydro-4-hydroxy-2-oxo-6(R or S)-[2-phenylethyl]-6-propyl-2H-pyran-3-yl)-2,2-dimethylopropyl]phenyl]-1-methyl-1H-imidazole-4-sulfonamide] | 0.072 | 77.39 | 99.85 | 107.87 | 93.34 | 83.49 | 69.74 | –
7 | CCC[C@@]1(CCc2ccccc2)CC(O)=C([C@@H](c2cccc(NS(=O)(=O)c3cn(C)cn3)c2)C(C)(C)C)C(=O)O1 (single isomer, unassigned) [Example 308, N-[3(R or S)-[1-(5,6-Dihydro-4-hydroxy-2-oxo-6(R or S)-[2-phenylethyl]-6-propyl-2H-pyran-3-yl)-2,2-dimethylpropyl]phenyl]-1-methyl-1H-imidazole-4-sulfonamide] | 0.074 | 75.06 | 108.14 | 95.01 | 108.43 | 110.75 | 96.28 | –
8 | CCC[C@@]1(CCc2ccccc2)CC(O)=C([C@@H](c2cccc(NS(=O)(=O)c3cn(C)cn3)c2)C(C)(C)C)C(=O)O1 (single isomer, unassigned) [Example 310, N-[3(R or S)-[1-(5,6-Dihydro-4-hydroxy-2-oxo-6(R or S)-[2-phenylethyl]-6-propyl-2H-pyran-3-yl)-2,2-dimethylpropyl]phenyl]-1-methyl-1H-imidazole-4-sulfonamide] | 1.5 | 16.81 | 50.11 | 78.69 | 100.22 | 124.77 | 110.91 | –
9 | CCC[C@@]1(CCc2ccccc2)CC(O)=C([C@H](CC)c2cccc(NS(=O)(=O)c3ccc(N)cn3)c2)C(=O)O1 (single isomer, unassigned) [Example 314, 5-Amino-N-[3(R or S)-(1-[5,6-dihydro-4-hydroxy-2-oxo-6(R or S)-(2-phenylethyl)-6-propyl-2H-pyran-3-yl]propyl)phenyl]-2-pyridinesulfonamide] | 0.7 | 82.92 | 96.14 | 114.86 | 100.76 | 88.75 | 73.42 | –
10 | CCC[C@@]1(CCc2ccccc2)CC(O)=C([C@H](CC)c2cccc(NS(=O)(=O)c3ccc(N)cn3)c2)C(=O)O1 (single isomer, unassigned) [Example 315, 5-Amino-N-[3(R or S)-(1-[5,6-dihydro-4-hydroxy-2-oxo-6(R or S)-(2-phenylethyl)-6-propyl-2H-pyran-3-yl]propyl)phenyl]-2-pyridinesulfonamide] | 0.029 | 79.95 | 87.25 | 88.08 | 97.03 | 100.2 | 106.4 | –
11 | CCC[C@@]1(CCc2ccc(F)cc2)CC(O)=C([C@@H](c2cccc(NS(=O)(=O)c3ccc(N)cn3)c2)C(C)(C)C)C(=O)O1 (single isomer, unassigned) [Example 316, 5-Amino-N-[3(R or S)-(1-[6(R or S)-(2-[4-fluorophenyl]ethyl)-5,6-dihydro-4-hydroxy-2-oxo-6-propyl-2H-pyran-3-yl]-2,2-dimethyl-propyl)phenyl]-2-pyridine-sulfonamide] | 0.357 | 75.49 | 85.02 | 100.32 | 95.46 | 99.71 | 87.91 | –
12 | CCC[C@@]1(CCc2ccc(F)cc2)CC(O)=C([C@@H](c2cccc(NS(=O)(=O)c3ccc(N)cn3)c2)C(C)(C)C)C(=O)O1 (single isomer, unassigned) [Example 317, 5-Amino-N-[3(R or S)-(1-[6(R or S)-(2-[4-fluorophenyl]ethyl)-5,6-dihydro-4-hydroxy-2-oxo-6-propyl-2H-pyran-3-yl]-2,2-dimethyl-propyl)phenyl]-2-pyridine-sulfonamide] | 0.04 | 87.38 | 94.14 | 98.45 | 95.97 | 101.26 | 108.59 | –
13 | CCCC1(CCC)CC(O)=C(C(c2cccc(NS(=O)(=O)c3cn(C)cn3)c2)C(C)(C)C)C(=O)O1 (single isomer, unassigned) [Example 318, N-[3(R or S)-(1-[5,6-Dihydro-6,6-dipropyl-4-hydroxy-2-oxo-2H-pyran-3-yl]-2,2-dimethylpropyl)-phenyl]-1-methyl-1H-imidazole-4-sulfonamide] | 0.019 | 98.06 | 106.35 | 101.88 | 88.73 | 94.49 | 82.83 | –
